# Reference: US4363805A, “Aminodesoxy-1.4;3.6-dianhydrohexitol nitrates and pharmaceutical composition” (Firma Willmar Schwabe, priority 1980, dated 1982)
# Key:
# [1] = test system: isolated guinea pig hearts; test: Experiments on Langendorff hearts (coronary flowthrough, inotropism, frequency); settings: Cavia porcellus, read-out: flowthrough, percentage change with regard to the initial value
# Protocol: After reaching the stationary state in the 30th minute, the hearts were each perfused with 50 ml. tyrode solution with a content of test substance of, in each case, 25 μg./ml. Each test substance was tested on 3-6 hearts.
# In each case, there was measured the inotropism, the flowthrough and the frequency, whereby the values given in Table I are average values of the percentage changes in comparison with the initial values.
# [2] = Acute toxicity, intravenous, mice; type: in vivo; settings: mouse, in vivo; intravenous, within 24 hours; read-out: Evaluated LD50-range
# female NMRI-albino mice = test: Acute toxicity, intravenous, mice; type: in vivo; settings: within 24 hours
# mongrel cats = test: Inotropic and heart-circulatory effectiveness on narcotised cats, intravenous; type: in vivo, cat; settings: 6 animals
# [3] = 0.25 mg/kg i.v., before administration
smiles,measurement,setting,value
"CN(CCCc1ccccc1)[C@H]1CO[C@H]2[C@@H]1OC[C@@H]2O[N+](=O)[O-] [Example 21, 5-[N-Methyl-N-(3-phenylpropyl)-amino]-5-desoxy-1.4;3.6-dianhydro-L-iditol 2-nitrate]",activation at 25 µg/mL,[1],117%
same,LD50 at 24 h,[2],50 to 100 mg/kg
same,Frequency of death,female NMRI-albino mice; 50 mg/kg i.v.,0/3
same,Frequency of death,female NMRI-albino mice; 100 mg/kg i.v.,3/3
same,Frequency of death,female NMRI-albino mice; 200 mg/kg i.v.,6/6
"O=[N+]([O-])O[C@H]1CO[C@H]2[C@@H]1OC[C@@H]2NCc1ccccc1 [Example 25, 5-Benzylamino-5-desoxy-1.4;3.6-dianhydro-L-iditol 2-nitrate]",activation at 25 µg/mL,[1],47.8%
same,LD50 at 24 h,[2],100 to 200 mg/kg
same,Frequency of death,female NMRI-albino mice; 100 mg/kg i.v.,0/3
same,Frequency of death,female NMRI-albino mice; 200 mg/kg i.v.,6/6
"O=[N+]([O-])O[C@H]1CO[C@H]2[C@@H]1OC[C@@H]2NCCCc1ccccc1 [Example 28, 5-(3-Phenylpropylamino)-5-desoxy-1.4;3.6-dianhydro-L-iditol 2-nitrate]",activation at 25 µg/mL,[1],68.1%
same,LD50 at 24 h,[2],50 to 100 mg/kg
same,Frequency of death,female NMRI-albino mice; 50 mg/kg i.v.,0/10
same,Frequency of death,female NMRI-albino mice; 100 mg/kg i.v.,5/6
same,Frequency of death,female NMRI-albino mice; 200 mg/kg i.v.,3/3
same,blood pressure before,mongrel cats; [3],101.3 mm.Hg
same,dp/dt (inotropism) before,mongrel cats; [3],7667 mm.Hg/sec
same,heart frequency before,mongrel cats; [3],225.0 min⁻¹
same,blood pressure WD,mongrel cats; 0.25 mg/kg i.v.,3.1 min
same,blood pressure after,mongrel cats; 0.25 mg/kg i.v.,81.8 mm.Hg
same,blood pressure Δ,mongrel cats; 0.25 mg/kg i.v.,-19.5 mm.Hg
same,dp/dt (inotropism) after,mongrel cats; 0.25 mg/kg i.v.,7400 mm.Hg/sec
same,dp/dt (inotropism) Δ,mongrel cats; 0.25 mg/kg i.v.,-267 mm.Hg/sec
same,dp/dt WD,mongrel cats; 0.25 mg/kg i.v.,2.7 min
same,heart frequency after,mongrel cats; 0.25 mg/kg i.v.,223.3 min⁻¹
same,heart frequency Δ,mongrel cats; 0.25 mg/kg i.v.,-1.7 min⁻¹
same,blood pressure WD,mongrel cats; 0.50 mg/kg i.v.,5.8 min
same,blood pressure after,mongrel cats; 0.50 mg/kg i.v.,79.0 mm.Hg
same,blood pressure Δ,mongrel cats; 0.50 mg/kg i.v.,-25.9 mm.Hg
same,dp/dt (inotropism) after,mongrel cats; 0.50 mg/kg i.v.,6567 mm.Hg/sec
same,dp/dt (inotropism) Δ,mongrel cats; 0.50 mg/kg i.v.,-1000 mm.Hg/sec
same,dp/dt WD,mongrel cats; 0.50 mg/kg i.v.,10.7 min
same,heart frequency after,mongrel cats; 0.50 mg/kg i.v.,226.3 min⁻¹
same,heart frequency Δ,mongrel cats; 0.50 mg/kg i.v.,-1.7 min⁻¹
same,blood pressure WD,mongrel cats; 1.00 mg/kg i.v.,12.2 min
same,blood pressure after,mongrel cats; 1.00 mg/kg i.v.,70.0 mm.Hg
same,blood pressure Δ,mongrel cats; 1.00 mg/kg i.v.,-39.7 mm.Hg
same,dp/dt (inotropism) after,mongrel cats; 1.00 mg/kg i.v.,5533 mm.Hg/sec
same,dp/dt (inotropism) Δ,mongrel cats; 1.00 mg/kg i.v.,-1534 mm.Hg/sec
same,dp/dt WD,mongrel cats; 1.00 mg/kg i.v.,23.0 min
same,heart frequency after,mongrel cats; 1.00 mg/kg i.v.,227.0 min⁻¹
same,heart frequency Δ,mongrel cats; 1.00 mg/kg i.v.,-1.0 min⁻¹
same,blood pressure WD,mongrel cats; 2.50 mg/kg i.v.,> 10 min
same,blood pressure after,mongrel cats; 2.50 mg/kg i.v.,53.2 mm.Hg
same,blood pressure Δ,mongrel cats; 2.50 mg/kg i.v.,-50.3 mm.Hg
same,dp/dt (inotropism) after,mongrel cats; 2.50 mg/kg i.v.,3600 mm.Hg/sec
same,dp/dt (inotropism) Δ,mongrel cats; 2.50 mg/kg i.v.,-3067 mm.Hg/sec
same,dp/dt WD,mongrel cats; 2.50 mg/kg i.v.,> 10 min
same,heart frequency after,mongrel cats; 2.50 mg/kg i.v.,206.3 min⁻¹
same,heart frequency Δ,mongrel cats; 2.50 mg/kg i.v.,-22.0 min⁻¹
